{"source": "patent US11111375B2", "about": "“Compositions and methods for generating oligodendrocyte precursors” (The Regents of the University of California, priority 2015, dated 2021)", "key": {"H9 hESCs": {"test_system": "H9 hESCs", "test": "Preliminary comparison of SHH and SAG for early OPC differentiation (ICC)", "assay_type": "cell-based, human", "conditions": "3D, 13 days", "protocol": "Following expansion, hPSCs were cultured in early OPC differentiation medium as described in FIG. 4A and fed daily with neural induction medium. Briefly, cells were first patterned with the dual-SMAD inhibitors LDN193189 and SB431542, and then ventralized using SHH or SAG. In some conditions, cells were caudalized using RA. On day 11 of the differentiation, cell-aggregates were split at a 1 to 3 ratio, broken into smaller-size aggregates by gentle pipetting (up and down, 10-15 times), re-encapsulated in the thermoresponsive gel, and fed with OPC proliferation medium. O1 ng/mL of FGF-2 (Peprotech) was then added to the OPC proliferation media described in FIG. 7A (added daily from day 14 until day 18, or from day 20 until day 24 of the differentiation). After FGF treatment, cells were fed every 2-3 days with OPC maturation medium, which included 20 μg/mL of L-Ascorbic Acid (Sigma) from day 75 until day 95. […]\nFor ICC analysis of cells differentiated in 3D, cell-spheres were transferred onto poly-D-lysine (10 μg/mL) and laminin (10 μg/mL)-coated glass-bottom plates, and incubated with their respective medium to enable cell spreading. […] Image Xpress Micro (IXM) was used for ICC quantification analysis, and Zeiss LSM 710 Axio Observer was used for confocal imaging. Images were analyzed using ImageJ and quantified using CellProfiler."}, "H9 cells": {"test_system": "H9 cells", "test": "ICC of OPC maturation markers (O4, SOX10, NKX2.2, OLIG2) in H9 cells", "assay_type": "cell-based, human", "protocol": "Following expansion, hPSCs were cultured in early OPC differentiation medium as described in FIG. 4A and fed daily with neural induction medium. Briefly, cells were first patterned with the dual-SMAD inhibitors LDN193189 and SB431542, and then ventralized using SHH or SAG. In some conditions, cells were caudalized using RA. On day 11 of the differentiation, cell-aggregates were split at a 1 to 3 ratio, broken into smaller-size aggregates by gentle pipetting (up and down, 10-15 times), re-encapsulated in the thermoresponsive gel, and fed with OPC proliferation medium. O1 ng/mL of FGF-2 (Peprotech) was then added to the OPC proliferation media described in FIG. 7A (added daily from day 14 until day 18, or from day 20 until day 24 of the differentiation). After FGF treatment, cells were fed every 2-3 days with OPC maturation medium, which included 20 μg/mL of L-Ascorbic Acid (Sigma) from day 75 until day 95. See FIG. 20 for a detailed description of the differentiation conditions.\nFor ICC analysis of cells differentiated in 3D, cell-spheres were transferred onto poly-D-lysine (10 μg/mL) and laminin (10 μg/mL)-coated glass-bottom plates, and incubated with their respective medium to enable cell spreading. After 48 hr (for early OPC differentiation) or 5 days (for late stage OPC analysis), cells were fixed with 4% PFA for 15 min at RT. After one wash with PBS, cells were incubated overnight at 4° C. with primary antibody in freshly prepared staining primary solution (5% donkey serum, (DS), 2% bovine serum albumin (BSA) and 0.25% Triton X-100 in PBS). Then, cells were gently washed twice with PBS, and incubated for 2 hr at room temperature (RT) with secondary antibodies and 4′,6-diamidino-2-phenylindole (DAPI) (1:1000) in freshly prepared secondary staining solution (2% DS, 2% BSA and 0.25% Triton X-100 in PBS). Cells were then washed three times with PBS and imaged using a Zeiss Axio Observer epi-fluorescent microscope. Image Xpress Micro (IXM) was used for ICC quantification analysis, and Zeiss LSM 710 Axio Observer was used for confocal imaging. Images were analyzed using ImageJ and quantified using CellProfiler."}, "[1]": {"conditions": "early FGF treatment: FGF-2 daily day 14 to day 18"}}, "data": [{"compound": "CNC1CCC(N(Cc2cccc(-c3ccncc3)c2)C(=O)c2sc3ccccc3c2Cl)CC1", "note": "(centres unmarked) [SAG]", "values": [{"measurement": "differences in NKX2.2 and OLIG2 expression, SHH vs SAG", "setting": "H9 hESCs", "value": "only minor differences"}]}, {"compound": "FGF-2: basic fibroblast growth factor-2 added to OPC proliferation medium", "values": [{"measurement": "fewer O4+ OPCs than with early FGF treatment", "setting": "H9 cells; FGF-2 from days 20-24, day 95", "value": "~4", "unit": "fold"}, {"measurement": "OPC differentiation on day 24 versus analogous condition without FGF", "setting": "H9 cells; [1]", "value": "similar"}, {"measurement": "number of cells expressing O4 by day 95", "setting": "H9 cells; [1]", "value": "increased"}]}, {"compound": "Vitamin D [reference compound]", "values": [{"measurement": "O4 expression among treated cells", "setting": "H9 cells; 0.1 μM from day 66 to day 95, H9 hESCs, condition 6 and early FGF", "value": "no increase"}]}]}
